Results as given in US20220050096A1, “ANALYTE-SENSITIVE PROBES AND CONTACT LENS FOR DIAGNOSIS OF OCULAR PATHOLOGIES” (University Of Maryland, Baltimore, priority 2020, published 2022).
Where two headings read alike, the source gives them in different places. Values belong to the compound of their own block, whether it stands above or below them.

What was measured:
[1] = cited from earlier work; for Kd: read-out: K (mM), binding constant
[2] = Chloride-dependent intensity decay analysis of SPQ-C18 in Biofinity contact lenses, phosphate buffer pH 7.2; type: physicochemical
Procedure: Fluorescence Spectroscopic Measurements. Fluorescence intensities and intensity decays were measured using a Varian™ Eclipse 4 spectrofluorometer and a FluoTime300 instrument from PicoQuant™ (Berlin, Germany) and analyzed with the EasyTau™ software. The excitation source was a 473 nm laser diode with a repetition rate of 40 MHZ and a pulse width less than 100 ps. In other embodiments, the excitation source for SG-PL was at 495 nm from a Solea™ supercontinuum laser (PicoQuant™, Germany) and a 375 nm laser diode (PDL 375, PicoQuant™), a repetition rate of 40 MHz, and a pulse width less than 100 ps. Some intensity and lifetime measurements for SG-PL (as indicated) were performed using Alba V confocal fluorescence lifetime microscopy, FLIM (ISS, Urbana, Ill.), with excitation source of a 473 nm laser diode with a repetition rate of 40 MHz and a pulse width near 250 ps.
Intensity decays were measured at the emission maximum with the band of 10 to 20 nm, analyzed in terms of the multi-exponential model:
I(t)=Σαi exp(−t/ti) (equation 1)
where ti are the individual decay times and αi the initial time-zero amplitudes. The mean decay time can be represented in two ways. The average lifetime is given by:
where Σαi=1.0 and Σfi=1.0. The term fi=αi τi is proportional to the fractional contribution of each component to the total intensity decay. The term τi/Σαi τi is the fractional contribution to the steady state emission. Here, we use the amplitude-weighted lifetime given by
which is appropriate when the emission is from a single fluorophore with a changing quantum yield. For a single exponential decay, the lifetime is given by τ=1.0/(knr+Γ) and the quantum yield is given by Q=Γ/(knr+Γ) where knr is the sum of all non-radiative decay rates and Γ is the radiative decay rate. The value of Γ is determined by the molecular extinction coefficient that remains constant under most conditions. For a single type of fluorophore with a constant value of Γ the normalized αi values represent the molecular fraction of each decay time component. The value of αi and τi were determined by non-linear least squares fitting using PicoQuant™ software.
Quenching by Chloride. Collisional quenching occurs, for example, when SPQ-C18 (also referred to as OD-MQB (N-Octadecyl-6-methoxyquinolinium bromide)) has a diffusion collision with a chloride ion. The intensities (I) and lifetimes (6) are analyzed using the Stern-Volmer equation,
SPQ-C18 was synthesized using 6-methoxy quinolinium (SPQ) and 1-bromooctadecane (C18) as described in the art. Lenses were labeled by incubation with 3 ml of a 1 μM solution of SPQ-C18 in methanol-water. SPQ-C18 bound rapidly to the Biofinity™ lenses. […] Unless stated otherwise, all spectral measurements conducted for the present study were performed in 20 mM MOPS buffer, 8 mM KCl, pH 7.2, at room temperature.

SMILES: COc1cc(N2CCOCCOCCN(c3cc(OC)c(NC(=O)c4ccc(-c5c6cc(Cl)c(=O)cc-6oc6cc([O-])c(Cl)cc56)c(C(=O)[O-])c4)cc3OC)CCOCC2)c(OC)cc1NC(=O)c1ccc(-c2c3cc(Cl)c(=O)cc-3oc3cc([O-])c(Cl)cc23)c(C(=O)[O-])c1.C[N+](C)(C)C.C[N+](C)(C)C.C[N+](C)(C)C.C[N+](C)(C)C [SG]
Lifetime (ns), cation-bound form ([1]; cation-bound form (in parentheses)): 2.38 ns
Lifetime (ns), free form ([1]; free form): 3.34 ns
Kd ([1]; listed as Na Green): 6 mM
Kd ([1]; listed as Sodium Green): ~5 mM
Kd [1]: 6 to 10 mM

f1 ([2]; NaCl 0 mM): 0.02
f2 ([2]; NaCl 0 mM): 0.10
f3 ([2]; NaCl 0 mM): 0.88
α1 ([2]; NaCl 0 mM): 0.36
α2 ([2]; NaCl 0 mM): 0.21
α3 ([2]; NaCl 0 mM): 0.44
τ1 ([2]; NaCl 0 mM): 0.69 ns
τ2 ([2]; NaCl 0 mM): 5.15 ns
τ3 ([2]; NaCl 0 mM): 20.74 ns
τf ([2]; NaCl 0 mM): 18.66 ns
τα ([2]; NaCl 0 mM): 10.35 ns
f1 ([2]; NaCl 20 mM): 0.03
f2 ([2]; NaCl 20 mM): 0.13
f3 ([2]; NaCl 20 mM): 0.84
α1 ([2]; NaCl 20 mM): 0.41
α2 ([2]; NaCl 20 mM): 0.21
α3 ([2]; NaCl 20 mM): 0.38
τ1 ([2]; NaCl 20 mM): 0.65 ns
τ2 ([2]; NaCl 20 mM): 4.98 ns
τ3 ([2]; NaCl 20 mM): 17.88 ns
τf ([2]; NaCl 20 mM): 15.65 ns
τα ([2]; NaCl 20 mM): 8.08 ns
f1 ([2]; NaCl 50 mM): 0.03
f2 ([2]; NaCl 50 mM): 0.22
f3 ([2]; NaCl 50 mM): 0.75
α1 ([2]; NaCl 50 mM): 0.38
α2 ([2]; NaCl 50 mM): 0.29
α3 ([2]; NaCl 50 mM): 0.33
τ1 ([2]; NaCl 50 mM): 0.73 ns
τ2 ([2]; NaCl 50 mM): 5.54 ns
τ3 ([2]; NaCl 50 mM): 16.81 ns
τf ([2]; NaCl 50 mM): 13.76 ns
τα ([2]; NaCl 50 mM): 7.38 ns
f1 ([2]; NaCl 90 mM): 0.05
f2 ([2]; NaCl 90 mM): 0.26
f3 ([2]; NaCl 90 mM): 0.68
α1 ([2]; NaCl 90 mM): 0.43
α2 ([2]; NaCl 90 mM): 0.31
α3 ([2]; NaCl 90 mM): 0.26
τ1 ([2]; NaCl 90 mM): 0.75 ns
τ2 ([2]; NaCl 90 mM): 5.33 ns
τ3 ([2]; NaCl 90 mM): 16.41 ns
τf ([2]; NaCl 90 mM): 12.49 ns
τα ([2]; NaCl 90 mM): 6.18 ns
f1 ([2]; NaCl 140 mM): 0.06
f2 ([2]; NaCl 140 mM): 0.31
f3 ([2]; NaCl 140 mM): 0.62
α1 ([2]; NaCl 140 mM): 0.44
α2 ([2]; NaCl 140 mM): 0.33
α3 ([2]; NaCl 140 mM): 0.22
τ1 ([2]; NaCl 140 mM): 0.82 ns
τ2 ([2]; NaCl 140 mM): 5.43 ns
τ3 ([2]; NaCl 140 mM): 16.26 ns
τf ([2]; NaCl 140 mM): 11.91 ns
τα ([2]; NaCl 140 mM): 5.81 ns
f1 ([2]; NaCl 200 mM): 0.08
f2 ([2]; NaCl 200 mM): 0.34
f3 ([2]; NaCl 200 mM): 0.58
α1 ([2]; NaCl 200 mM): 0.48
α2 ([2]; NaCl 200 mM): 0.34
α3 ([2]; NaCl 200 mM): 0.20
τ1 ([2]; NaCl 200 mM): 0.77 ns
τ2 ([2]; NaCl 200 mM): 4.92 ns
τ3 ([2]; NaCl 200 mM): 15.93 ns
τf ([2]; NaCl 200 mM): 11.03 ns
τα ([2]; NaCl 200 mM): 4.90 ns
SMILES: CCCCCCCCCCCCCCCCCC[n+]1cccc2cc(OC)ccc21 [SPQ-C18, N-Octadecyl-6-methoxyquinolinium bromide]
